Like-named read-outs stand apart in the source and are kept apart here.
Key:
[1] = tested on: MCP-1 production by THP-1 cells; experiment: MCP-1 production by macrophages; type: cell-based, human; settings: read-out: IC50 MCP-1 production
Procedure: (§1) The human macrophage cell line, THP-1 was plated in a 12 well plate such that each well contains 1×10^6 cells in 2 ml of media containing 10% FCS. Opsonized zymosan was prepared by resuspending 20 mg of zymosan A in 2 ml of ddH2O and homogenizing until a uniform suspension was obtained. Homogenized zymosan was pelleted at 250 g and resuspended in 4 ml of human serum for a final concentration of 5 mg/ml and incubated in a 37° C. water bath for 20 minutes to enable opsonization. Geldanamycin was prepared in DMSO at a concentration of 10^−2 M and serially diluted 10-fold to give a range of stock concentrations (10^−8 M to 10^−2 M).
THP-1 cells were stimulated to produce MCP-1 by the addition of 1 mg/ml opsonized zymosan. […] was added to THP-1 cells by directly adding DMSO stock solutions, prepared earlier, at a 1/1000 dilution, to each well. Each drug concentration was tested in triplicate wells. Plates were incubated at 37° C. for 24 hours.
After a 24-hour stimulation, supernatants were collected to quantify MCP-1 production. MCP-1 concentrations in the supernatants were determined by ELISA using recombinant human MCP-1 to obtain a standard curve. A 96-well MaxiSorb plate was coated with 100 μL of anti-human MCP-1 Capture Antibody diluted in Coating Buffer (0.1M sodium carbonate pH 9.5) overnight at 4° C. The dilution of Capture Antibody used was lot-specific and was determined empirically. Capture antibody was then aspirated and the plate washed 3 times with Wash Buffer (PBS, 0.05% TWEEN-20). Plates were blocked for 1 hour at room temperature with 200 μL/well of Assay Diluent (PBS, 10% FCS pH 7.0). After blocking, plates were washed 3 times with Wash Buffer. […] Sample supernatants and standards were assayed in triplicate and were incubated at room temperature for 2 hours after addition to the plate coated with Capture Antibody. The plates were washed 5 times and incubated with 100 μL of Working Detector (biotinylated anti-human MCP-1 detection antibody+avidin-HRP) for 1 hour at room temperature. Following this incubation, the plates were washed 7 times and 100 μL of Substrate Solution (tetramethylbenzidine, H2O2) was added to plates and incubated for 30 minutes at room temperature. […] Mean absorbance was determined from triplicate data readings and the mean background was subtracted. MCP-1 concentration values were obtained from the standard curve.

[2] = tested on: TNFα production by THP-1 cells; experiment: TNF-alpha production by macrophages; type: cell-based, human; settings: read-out: IC50 TNFα production
Procedure: as §1, with “12-well” for “12 well”, “opsonization.” for “opsonization. Geldanamycin was prepared in DMSO at a concentration of 10^−2 M and serially diluted 10-fold to give a range of stock concentrations (10^−8 M to 10^−2 M).”
THP-1 cells were stimulated to produce TNFα by the addition of 1 mg/ml opsonized zymosan. […] Each drug concentration was tested in triplicate wells. Plates were incubated at 37° C. for 24 hours.
After a 24-hour stimulation, supernatants were collected to quantify TNFα production. TNFα concentrations in the supernatants were determined by ELISA using recombinant human TNFα to obtain a standard curve A 96-well MaxiSorb plate was coated with 100 μL of anti-human TNFα Capture Antibody diluted in Coating Buffer (0.1M sodium carbonate pH 9 5) overnight at 4° C. The dilution of Capture Antibody used was lot-specific and was determined empirically. Capture antibody was then aspirated and the plate washed 3 times with Wash Buffer (PBS, 0.05% TWEEN-20) Plates were blocked for 1 hour at room temperature with 200 μL/well of Assay Diluent (PBS, 10% FCS pH 7.0). After blocking, plates were washed 3 times with Wash Buffer. […] Sample supernatants and standards were assayed in triplicate and were incubated at room temperature for 2 hours after addition to the plate coated with Capture Antibody. The plates were washed 5 times and incubated with 100 μL of Working Detector (biotinylated anti-human TNFα detection antibody+avidin-HRP) for 1 hour at room temperature. Following this incubation, the plates were washed 7 times and 100 μL of Substrate Solution (tetramethylbenzidine, H2O2) was added to plates and incubated for 30 minutes at room temperature. […] Mean absorbance was determined from triplicate data readings and the mean background was subtracted. TNFα concentration values were obtained from the standard curve.

[3] = tested on: human fibroblasts; experiment: Cell proliferation of fibroblasts; type: cell-based; settings: Fibroblast, 72 hours, CYQUANT, read-out: IC50 cell proliferation of fibroblasts
Procedure: Fibroblasts at 70-90% confluency are trypsinized, replated at 600 cells/well in media in 96-well plates and allowed to attachment overnight. […] Each drug concentration is tested in triplicate wells. Plates containing fibroblasts and drug substance are incubated at 37° C. for 72 hours.
To terminate the assay, the media is removed by gentle aspiration. A 1/400 dilution of CYQUANT 400×GR™ dye indicator (Molecular Probes; Eugene, Oreg.) is added to 1× Cell Lysis buffer, and 200 μL of the mixture is added to the wells of the plate. Plates are incubated at room temperature, protected from light for 3-5 minutes.

[4] = tested on: Smooth muscle cells; experiment: Proliferation of smooth muscle cells; type: cell-based; settings: read-out: IC50 proliferation of smooth muscle cells
Procedure: Smooth muscle cells at 70-90% confluency were trypsinized, replated at 600 cells/well in media in 96-well plates and allowed to attachment overnight. Paclitaxel was prepared in DMSO at a concentration of 10^−2 M and diluted 10-fold to give a range of stock concentrations (10^−8 M to 10^−2 M). […] Each drug concentration was tested in triplicate wells. Plates containing cells and paclitaxel were incubated at 37° C. for 72 hours.
To terminate the assay, the media was removed by gentle aspiration A 1/400 dilution of CYQUANT 400×GR dye indicator (Molecular Probes; Eugene, Oreg.) was added to 1× Cell Lysis buffer, and 200 μL of the mixture was added to the wells of the plate. Plates were incubated at room temperature, protected from light for 3-5 minutes.

[5] = THP-1 cells stimulated with opsonized zymosan, 24 hours
[6] = Homo sapiens, THP-1 cells stimulated with opsonized zymosan, 24 hours

Row | Structure (SMILES) | IC50 [1, 5] [nM] | IC50 ([4]; 72 hours, CYQUANT) [nM] | also measured
1 | C=C1/C(=C\C=C2/CCC[C@]3(C)[C@@H]([C@H](C)CCCC(C)(C)O)CC[C@@H]23)C[C@@H](O)C[C@@H]1O [1-α-25 dihydroxy vitamin D3] | 1 | – | –
2 | CCCCC/C=C/C=C1/C(=O)C=C[C@@H]1C/C=C\CCCC(=O)O [15-deoxy prostaglandin J2, 15-Deoxy-D12,14-prostaglandin J2] | 724 | – | IC50 [2, 5]: 742 nM
3 | CC1(C)CN[Se]c2ccccc21 [BXT-51072] | 683 | – | –
4 | Cc1ccc(S(=O)(=O)/C=C/C#N)cc1 [Bay 11-7082] | – | – | IC50 [2, 5]: 810 nM
5 | O=C(O)CCCCN(CCc1ccccc1OCc1ccc(CCc2ccccc2)cc1)Cc1ccc(C(=O)O)cc1 [Bay 58-2667] | 216 | – | –
6 | COc1c(C)c2c(c(O)c1C/C=C(\C)CCC(=O)OCCN1CCOCC1)C(=O)OC2 [Mycophenolate mofetil] | – | 463 | IC50 [2, 6]: 792 nM; IC50 [3]: 600 to 1200 nM; IC50 [1, 6]: 217 nM
7 | Fc1ccc(-c2nc3n(c2-c2ccncc2)CCS3)cc1 [SKF 86002] | – | – | IC50 [2, 6]: 831 nM
8 | CN(C)CCCN1c2ccccc2Sc2ccc(Cl)cc21 [chlorpromazine] | – | – | IC50 [2, 6]: 6 nM; IC50 [1, 6]: 0.011 nM
9 | COC1=C2C[C@@H](C)C[C@H](OC)[C@H](O)[C@@H](C)/C=C(\C)[C@H](OC(N)=O)[C@@H](OC)/C=C\C=C(/C)C(=O)NC(=CC1=O)C2=O [geldanamycin] | – | 5 | IC50 [2, 6]: 14 nM; IC50 [3]: 0.1 to 10 nM
10 | Nc1ccn([C@@H]2O[C@H](CO)[C@@H](O)C2(F)F)c(=O)n1 [gemcitabine] | 50 | 9 | –
11 | COc1cc([C@@H]2c3cc4c(cc3[C@H](O)[C@H]3COC(=O)[C@H]23)OCO4)cc(OC)c1OC [podophyllotoxin] | – | – | IC50 ([2]; Homo sapiens, THP-1, 24 h): 75 nM; IC50 [3]: 100 to 600 nM; IC50 ([4]; 72 h): 21 nM; IC50 ([1]; Homo sapiens, THP-1, 24 h): 28 nM
12 | COc1ccc(C[C@H](N)C(=O)N[C@H]2[C@@H](O)[C@H](n3cnc4c(N(C)C)ncnc43)O[C@@H]2CO)cc1 [puromycin] | 161 | 384 | –
13 | CC[C@]1(O)C[C@@H]2CN(CCc3c([nH]c4ccccc34)[C@@](C(=O)OC)(c3cc4c(cc3OC)N(C)[C@H]3[C@@](O)(C(=O)OC)[C@H](OC(C)=O)[C@]5(CC)C=CCN6CC[C@]43[C@@H]65)C2)C1 [vinblastine] | 19 | 3 | IC50 [2, 5]: 65 nM
14 | CC[C@]1(O)C[C@H]2CN(CCc3c([nH]c4ccccc34)[C@@](C(=O)OC)(c3cc4c(cc3OC)N(C=O)[C@H]3[C@@](O)(C(=O)OC)[C@H](OC(C)=O)[C@]5(CC)C=CCN6CC[C@]43[C@@H]65)C2)C1 [vincristine] | 16 | 9 | –
15 | CCC1=C[C@@H]2CN(C1)Cc1c([nH]c3ccccc13)[C@@](C(=O)OC)(c1cc3c(cc1OC)N(C)[C@H]1[C@@](O)(C(=O)OC)[C@H](OC(C)=O)[C@]4(CC)C=CCN5CC[C@]31[C@@H]54)C2 [vinorelbine] | 69 | 15 | IC50 [2, 5]: 605 nM

From patent US20090226500A1, “SUTURES AND ANTI-SCARRING AGENTS” (Angiotech Pharmaceuticals, Inc, priority 2006, published 2009)
